Measurements published in patent publication US20120214822A1 (ASTRAZENECA AB, priority 2007, published 2012).

Target: human active recombinant p38α-6His tagged (Homo sapiens, UniProt Q16539)
Assay: P38 Alpha Enzyme Assay (AlphaScreen, biotinylated-ATF2 substrate);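 note: 0.5 nM final p38α, reaction started with ATP and run 45 min at 37 °C, phospho-ATF2 read by antibody-based AlphaScreen, background wells quenched with EDTA before ATP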
Format: biochemical
Settings: p38 alpha enzyme inhibition; means of replicate determinations; 4 h pre-incubation at 37° C.; SD of assay 0.2-0.3 log units

human active recombinant p38α-6His tagged, sequence (Q16539 whole entry): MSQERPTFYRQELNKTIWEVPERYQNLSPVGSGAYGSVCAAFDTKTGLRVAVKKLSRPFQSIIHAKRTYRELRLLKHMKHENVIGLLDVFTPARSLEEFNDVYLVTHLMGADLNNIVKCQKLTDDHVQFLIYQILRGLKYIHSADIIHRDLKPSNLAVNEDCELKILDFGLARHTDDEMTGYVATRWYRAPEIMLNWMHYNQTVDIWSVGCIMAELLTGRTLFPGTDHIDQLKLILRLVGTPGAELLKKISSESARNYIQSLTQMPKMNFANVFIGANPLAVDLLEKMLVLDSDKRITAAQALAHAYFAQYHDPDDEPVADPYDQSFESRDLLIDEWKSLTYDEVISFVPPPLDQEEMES

pIC50	IC50 [nM]	SMILES
9.3	–	CC(C)(Nc1nccn(-c2cc(C(=O)NC3CC3)ccc2Cl)c1=O)c1ccccc1OCCN [Example 334, 3-[3-({1-[2-(2-Aminoethoxy)phenyl]-1-methylethyl}amino)-2-oxopyrazin-1(2H)-yl]-4-chloro-N-cyclopropylbenzamide]
8.9	–	Cc1ccc(C(=O)NC2CC2)cc1-n1ccnc(N[C@@H](c2ccccc2)[C@@H](C)CN2CCC(O)CC2)c1=O [Example 152, N-Cyclopropyl-3-[3-[[(1R,2S)-3-(4-hydroxy-1-piperidinyl)-2-methyl-1-phenylpropyl]amino]-2-oxo-1(2H)-pyrazinyl]-4-methyl-benzamide]
10.2	–	Cc1c(F)cc(C(=O)NC2CC2)cc1-n1ccnc(NC(C)(C)c2ccccc2OCCNCCO)c1=O [Example 253, N-Cyclopropyl-3-fluoro-5-[3-[[1-[2-[2-[(2-hydroxyethyl)amino]ethoxy]phenyl]-1-methylethyl]amino]-2-oxo-1(2H)-pyrazinyl]-4-methyl-benzamide]
9.8	–	Cc1c(F)cc(C(=O)NC2CC2)cc1-n1ccnc(NC(C)(C)c2ccccc2SCCNCCO)c1=O [Example 322, N-Cyclopropyl-3-fluoro-5-[3-({1-[2-({2-[(2-hydroxyethyl)amino]ethyl}sulfanyl)phenyl]-1-methylethyl}amino)-2-oxopyrazin-1(2H)-yl]-4-methylbenzamide]
6.4	–	Cc1ccc(C(=O)NC2CC2)cc1-n1ccnc(N2CCN(C)CC2)c1=O [Example 2, N-Cyclopropyl-4-methyl-3-[3-(4-methyl-1-piperazinyl)-2-oxo-1(2H)-pyrazinyl]-benzamide]
9.5	–	CNCCSc1ccccc1C(C)(C)Nc1nccn(-c2cc(C(=O)NC3CC3)cc(F)c2C)c1=O [Example 320, N-Cyclopropyl-3-fluoro-4-methyl-5-[3-{[1-methyl-1-(2-{[2-(methylamino)ethyl]sulfanyl}phenyl)ethyl]amino}-2-oxopyrazin-1(2H)-yl]benzamide]
7.1	–	Cc1ccc(C(=O)NC2CC2)cc1-n1ccnc(NC[C@H](C)c2ccccc2)c1=O [Example 57, N-Cyclopropyl-4-methyl-3-[2-oxo-3-[[(2R)-2-phenylpropyl]amino]-1(2H)-pyrazinyl]-benzamide]
9.1	–	Cc1ccc(C(=O)NC2CC2)cc1-n1ccnc(NC2(c3ccccc3OCCN3CCn4ccnc4C3)CC2)c1=O [Example 296, N-Cyclopropyl-3-{3-[(1-{2-[2-(5,6-dihydroimidazo[1,2-a]pyrazin-7(8H)-yl)ethoxy]phenyl}cyclopropyl)amino]-2-oxopyrazin-1(2H)-yl}-4-methylbenzamide]
7.5	–	Cc1ccc(C(=O)NC2CC2)cc1-n1ccnc(NCc2ccc(F)cc2)c1=O [Example 33, N-Cyclopropyl-3-[3-[[(4-fluorophenyl)methyl]amino]-2-oxo-1(2H)-pyrazinyl]-4-methyl-benzamide]
9.2	–	Cc1ccc(C(=O)NC2CC2)cc1-n1ccnc(NC2(c3ccccc3OCCN3CCC(F)(F)C3)CC2)c1=O [Example 244, N-Cyclopropyl-3-[3-[[1-[2-[2-(3,3-difluoro-1-pyrrolidinyl)ethoxy]phenyl]cyclopropyl]amino]-2-oxo-1(2H)-pyrazinyl]-4-methyl-benzamide]
6.6	–	CNCCOc1ccccc1C(C)(C)Nc1nccn(-c2cc(C(=O)NCC(C)C)ccc2C)c1=O [Example 226, 4-Methyl-3-[3-[[1-methyl-1-[2-[2-(methylamino)ethoxy]phenyl]ethyl]amino]-2-oxo-1(2H)-pyrazinyl]-N-(2-methylpropyl)-benzamide]
7.8	–	CCOc1ccccc1CNc1nccn(-c2cc(C(=O)NC3CC3)ccc2C)c1=O [Example 78, N-Cyclopropyl-3-[3-[[(2-ethoxyphenyl)methyl]amino]-2-oxo-1(2H)-pyrazinyl]-4-methyl-benzamide]
9.5	–	Cc1ccc(C(=O)NC2CC2)cc1-n1ccnc(NC2(c3ccccc3OCCN[C@@H](CO)C(C)C)CC2)c1=O [Example 293, N-Cyclopropyl-3-[3-({1-[2-(2-{[(1R)-1-(hydroxymethyl)-2-methylpropyl]amino}ethoxy)phenyl]cyclopropyl}amino)-2-oxopyrazin-1(2H)-yl]-4-methylbenzamide]
9.8	–	Cc1ccc(C(=O)NC2CC2)cc1-n1ccnc(N[C@@H](c2ccccc2)[C@@H](C)CN2CCNC[C@H]2C)c1=O [Example 187, N-Cyclopropyl-4-methyl-3-[3-[[(1R,2S)-2-methyl-3-[(2R)-2-methyl-1-piperazinyl]-1-phenylpropyl]amino]-2-oxo-1(2H)-pyrazinyl]-benzamide]
7.2	–	Cc1ccccc1CCNc1nccn(-c2cc(C(=O)NC3CC3)ccc2C)c1=O [Example 72, N-Cyclopropyl-4-methyl-3-[3-[[2-(2-methylphenyl)ethyl]amino]-2-oxo-1(2H)-pyrazinyl]-benzamide]
9.1	–	Cc1ccc(C(=O)NC2CC2)cc1-n1ccnc(NC2(c3ccccc3OCCN3CCN(CCO)CC3)CC2)c1=O [Example 232, N-Cyclopropyl-3-[3-[[1-[2-[2-[4-(2-hydroxyethyl)-1-piperazinyl]ethoxy]phenyl]cyclopropyl]amino]-2-oxo-1(2H)-pyrazinyl]-4-methyl-benzamide]
8.8	–	Cc1ccc(C(=O)NC2CC2)cc1-n1ccnc(NC2(c3ccccc3OCCNCC(F)(F)F)CC2)c1=O [Example 240, N-Cyclopropyl-4-methyl-3-[2-oxo-3-[[1-[2-[2-[(2,2,2-trifluoroethyl)amino]ethoxy]phenyl]cyclopropyl]amino]-1(2H)-pyrazinyl]-benzamide]
6.5	–	Cc1ccc(C(=O)NC2CC2)cc1-n1ccnc(N(C)CCc2ccccc2)c1=O [Example 66, N-Cyclopropyl-4-methyl-3-[3-[methyl(2-phenylethyl)amino]-2-oxo-1(2H)-pyrazinyl]benzamide]
–	251	Cc1ccc(C(=O)NC2CC2)cc1-n1ccnc(NCC2(c3ccccc3)CCN(C)CC2)c1=O [Example 35, N-Cyclopropyl-4-methyl-3-[3-[[(1-methyl-4-phenyl-4-piperidinyl)methyl]amino]-2-oxo-1(2H)-pyrazinyl]-benzamide]
6.9	–	Cc1ccc(C(=O)NC2CC2)cc1-n1ccnc(NCc2ccccn2)c1=O [Example 23, N-Cyclopropyl-4-methyl-3-[2-oxo-3-[(2-pyridinylmethyl)amino]-1(2H)-pyrazinyl]-benzamide]
6.8	–	Cc1ccc(C(=O)NC2CC2)cc1-n1ccnc(N2CCCCC2)c1=O [Example 76, N-Cyclopropyl-4-methyl-3-[2-oxo-3-(1-pipendinyl)-1(2H)-pyrazinyl]-benzamide]
6.3	–	Cc1ccc(C(=O)NC2CC2)cc1-n1ccnc(NCC(c2ccccc2)N(C)C)c1=O (centres unmarked) [Example 61, N-Cyclopropyl-3-[3-[[2-(dimethylamino)-2-phenylethyl]amino]-2-oxo-1(2H)-pyrazinyl]-4-methyl-benzamide]
9	–	Cc1c(F)cc(C(=O)NC2CC2)cc1-n1ccnc(N[C@@H](c2ccccc2)[C@@H](C)CN2CCCC2)c1=O [Example 328, N-Cyclopropyl-3-fluoro-4-methyl-5-[3-{[(1R,2S)-2-methyl-1-phenyl-3-pyrrolidin-1-ylpropyl]amino}-2-oxopyrazin-1(2H)-yl]benzamide]
